Entries after “also recorded” stand apart in the source; their conditions may differ.
Experiments:
HT22 cell culture = assay: Glutamate toxicity in HT22 cell culture; format: cell-based; details: PSP-2 50 μM (FIG. 9)
From the text: Glutamate toxicity is a model of ferroptotic cell death. Glutamate toxicity and ferroptosis are likely involved in retinal ganglion cell (RGC) death post-optic nerve crush (ONC).

retinal ganglion cells = assay: Retinal ganglion cell survival after optic nerve crush (βIII-tubulin positive cells); format: in vivo, mice; details: two weeks post ONC
Protocol: (§1) Experiments were performed in 8 to 9-week-old 129S1/SvImJ male mice (Jackson Laboratory, Bar Harbor, Me.). Mice were anesthetized prior to ONC surgery with ketamine and xylazine. The ONC surgery and euthanization of mice were performed as previously described in U.S. Publication No. 2014/079741, the contents of which are hereby incorporated by reference in their entirety. Briefly, a conjunctival incision was made over the dorsal aspect of one eye, which was then gently rotated downward in the orbit. The orbital muscles were slightly separated to expose the optic nerve at its exit from the globe, which was then crushed for 5 seconds with jewelers' forceps (Dumont number 5) near the back of the eye (within 0.5 mm). ONC was performed unilaterally for all autometallography experiments and bilaterally for all regeneration experiments. […]
(§2) Axon growth was determined by counting GAP-43-positive axons extending 0.5 and 1 mm from the crush site. The cross-sectional width of the nerve was measured at the 0.5 and 1 mm points. The number of axons per millimeter of nerve width was calculated and then averaged for the number of sections analyzed. The estimated number of axons per nerve was then calculated. Retinal ganglion cell survival was measured as the number of βIII-tubulin positive cells per mm^2.

[1] = tested on: astrocyte-rich primary cortical neurons; assay: DTDP (dithiodipyridine) toxicity in astrocyte-rich primary cortical neurons; format: cell-based; details: PSP-2 3 μM (FIG. 8)
Protocol: FIG. 8 is a bar plot showing that DTDP (dithiodipyridine) toxicity in astrocyte-rich primary cortical neurons was reversed with PSP-2 (3 μM). DTDP is an agent oxidizing metallothioneins. Oxidation of metallothioneins leads to liberation of metals (zinc and copper) and cell death.

[2] = tested on: GAP-43-positive axons in the optic nerve; assay: Axon regeneration after optic nerve crush (GAP-43-positive axons); format: in vivo, mice
Protocol: To determine if copper chelation promotes axon regeneration after nerve injury, mice were administered treatments as described in Example 1 after bilateral ONC. […] An antibody against GAP-43 was used to detect growing axons (FIG. 4A-4D).
as §1, with “experiments. Treatments were administered unilaterally for all autometallography experiments and bilaterally for all regeneration experiments. Post-ONC treatments were administered by intraocular injection immediately after ONC surgery. Mice were sacrificed with an overdose of anesthesia. Tissue samples were snap-frozen for all autometallography experiments. Mice were perfused with saline followed by 4% paraformaldehyde (PFA) and the tissue samples were post-fixed in PFA for regeneration experiments.” for “experiments.”
as §2

[3] = tested on: metals in the retina, i.e., copper and zinc; assay: Autometallography (AMG) of metals in the retina after optic nerve crush (ONC); format: in vivo, mice; details: day 1 post ONC; intraocular injection immediately after ONC; TPEN 100 μM, PSP-2 50 μM, PSP-2+Cu 50 μM
Protocol: Metals in the retina, i.e., copper and zinc, were visualized using autometallography. […] To determine whether copper chelators had any effect on this increase, the selective copper chelator PSP-2 was used. Mice were administered 3 μL of DMSO 1% in PBS (control), 100 μM TPEN (10 mM TPEN stock in DMSO diluted in PBS (DMSO 1%)), 50 μM PSP-2 (5 mM PSP-2 stock in DMSO diluted in PBS (DMSO 1%)), or 50 μM PSP-2+Cu (10 mM PSP-2+Cu in de-O2 water diluted in PBS (DMSO 1%) immediately after unilateral optic nerve crush (ONC). In these studies, the normal, intact retina was used as a reference.
as §1, with “mm).” for “mm). ONC was performed unilaterally for all autometallography experiments and bilaterally for all regeneration experiments.”

[4] = cited from earlier work

CP(C)(=S)CP(CCP(CP(C)(C)=S)CP(C)(C)=S)CP(C)(C)=S [PSP-2]
glutamate-induced cell death (HT22 cell culture): partially alleviated | survival of retinal ganglion cells (retinal ganglion cells): did not significantly affect survival of retinal ganglion cells; also recorded: did not improve retinal ganglion cell (RGC) survival | DTDP-induced cell death [1]: reversed | axon regeneration, dose dependence ([2]; 2 weeks post ONC, FIG. 7A): improved axon regeneration in a dose-dependent manner | axon regeneration at 0.5 mm distance from the site of ONC ([2]; two weeks post ONC, 0.5 mm, PSP-2 50 μM intraocular): improved axon regeneration | axon regeneration at 1.0 mm distance from the site of ONC ([2]; two weeks post ONC, 1.0 mm, PSP-2 50 μM intraocular): improved axon regeneration | autometallography (AMG) signal in the retina [3]: reduced the autometallography signal; also recorded: reduced metal autometallography (AMG) signal

CP(C)(=S)CP(CP(C)(C)=S)c1ccccc1P(CP(C)(C)=S)CP(C)(C)=S [PhenPS]
dissociation constant, Cu(I) [4]: about 0.6 zM

CP(C)(=S)CP(CP(C)(C)=S)c1cccc2cccc(P(CP(C)(C)=S)CP(C)(C)=S)c12 [naphPS]
dissociation constant, Cu(I) [4]: 0.8 zM

c1ccc(CN(CCN(Cc2ccccn2)Cc2ccccn2)Cc2ccccn2)nc1 [TPEN, N, N, N′, N′-tetrakis(2-pyridylmethyl) ethylenediamine, reference compound]
autometallography (AMG) signal in the retina [3]: reduced the autometallography signal
